What was measured:
[1] = system: neurospheres (NPCs from the subventricular zone); experiment: Neurosphere growth analysis (NPC proliferation); type: cell-based, mice; conditions: 0.1, 1, and 5 μM; 7 days
Method: Based on that, we further investigated the neurogenic and differentiation potential of our kinase inhibitors in cell culture of neurospheres, which are floating pools of NPCs coming from the subventricular zone (SVZ) of six-month-old mice. Particularly, we first analyzed the variation, during 7 days, in number and size of neurosphere population with and without treatment.
To investigate the effect of compounds of interest in neurospheres’ growth rate, single spheres were plated in suspension in 96-well plates (5 × 10^3 cells/well) in the presence of compounds (0.1 μM, 1 μM, and 5 μM) in complete DMEM F-12 culture medium. One image/well was acquired every day by using the Sartorius Incucyte Live-Cell Analysis System and evaluated through the Brightfield Spheroid Analysis Software Module. Only aggregates with areas larger than 400 μm^2 were considered for statistical analysis.

[2] = BBB permeability in hCMEC/D3 transwell model; conditions: human
Method: To this aim, the immortalized human brain endothelial cell line (hCMEC/D3) was used since it mimics the brain endothelium-restricted permeability and expresses most of the transporters and receptors present in vivo, constituting a valuable in vitro model of the human BBB crossing system.
BBB permeability assay was conducted as described in Albertini et al. The brain microvascular endothelial cells (hCMEC/D3) were seeded at the density of 5 × 10^4 cells per cm^2 in the upper compartment of Transwell filters (polyester, pore size 0.4 μm, 12-well tissue culture transwell; Corning), precoated with rat tail collagen type I (0.1 mg/mL; Roche). They were grown for 7 days up to confluence in Endothelial Cell Growth Medium 2 (Promocell), supplemented with penicillin/streptomycin 100 U/mL, in a humidified, 5% CO2 incubator at 37 °C. Confluent monolayers were washed in prewarmed HBSS buffer, and the selected compounds were added to the apical (AP) side at a concentration of 100 μM. […] Samples (100 μL) were collected from the BL side at different time points (15, 30, 60, and 90 min) and then replaced with the corresponding volume of HBSS buffer. […] The concentration of compounds was determined using a Ultimate 3000 HPLC system (ThermoFisher) with UV–vis detection at the maximum absorption wavelength of each compound except for inulin as determined by a spectrophotometric method using a Tecan Sunrise absorbance microplate reader. […] The permeability coefficient (Papp) was calculated as follows: Papp = (ΔQ/Δt)/(C [donor] × A), where ΔQ/Δt represents the permeation rate (mol/s), C [donor] is the initial compound concentration in the donor compartment at time 0 (mol/cm^3), and A represents the surface area of the filter (1.12 cm^2).

Br.Cc1sc(NCc2ccnc(Cl)c2)nc1-c1c[nH]c2ncccc12 [Compound 43, N-((2-Chloropyridin-4-yl)methyl)-5-methyl-4-(1H-pyrrolo[2,3-b]pyridin-3-yl)thiazol-2-amine Hydrobromide]
Neurosphere number (object count per image), neurogenesis [1]: not effective | Papp A→B at 90 min, 100 μM [2]: 320 ± 53.8 nm/s

Source: PMC12406253, “Exploration of the Neuromodulatory Properties of Fyn and GSK-3β Kinases Exploiting 7‑Azaindole-Based Inhibitors” (Journal of Medicinal Chemistry, 2025)
